Laboratory results taken from US4087390A, “Somatostatin analogs and intermediates thereto” (Eli Lilly and Company, priority 1977, dated 1978).
Bridge positions count the residues as written; N and C are the ends. Square brackets hold non-standard residues; d marks the D form. Peptide text beside a SMILES is read from it.

Key:
[1] = tested on: gastric HCl secretion induced by the C-terminal tetrapeptide of gastrin; test: in vivo inhibition of gastric acid secretion in dogs with chronic fistula and Heidenhain pouch
Description: D-Val^2, D-Trp^8 -somatostatin was tested in dogs for its in vivo inhibition of gastric acid secretion. In six dogs with chronic fistula and Heidenhain pouch, gastric HCl secretion was induced by infusion of the C-terminal tetrapeptide of gastrin at 0.5 μg/kg-hr. Each dog served as its own control, receiving on a separate day only the tetrapeptide. On another day, the six dogs received the tetrapeptide, and after one hour of steady state secretion of HCl, D-Val^2, D-Trp^8 -somatostatin was infused at 0.25 μg/kg-hr. for one hour. Collection of gastric acid samples was continued for an additional 1.5 hours at 15 minute intervals. The samples were titrated to pH 7 with an automatic titrator. The maximal inhibitory effect of the D-Val^2, D-Trp^8 -somatostatin was extrapolated against the dose-response curve of somatostatin, and the relative potency of the analog to that of somatostatin is expressed as percent activity. D-Val^2, D-Trp^8 -somatostatin inhibited steady state acid secretion induced by the C-terminal tetrapeptide of gastrin by 61.9 ± 3.4% standard error of mean. This effect is equivalent to that of 0.324 μg/kg-hr. of somatostatin. Its activity relative to that of somatostatin thus is 130%.

gut motility = test: action on gut motility in conscious dogs (intralumenal pressure); format: in vivo
Description: D-Val^2, D-Trp^8 -somatostatin also was tested for its action on gut motility in conscious dogs. Three dogs having intralumenal catheters placed in the antrum, duodenum, and pylorus were used. Pressure changes in the gut lumen were recorded on a Visicorder using strain gauges and miniature light beam galvanometers. After a steady state control was established, D-Val^2, D-Trp^8 -somatostatin was infused intravenously over a ten minute period. […] The minimum effective dose required to increase the pyloric pressure and to decrease the duodenum and antrum pressures was >0.125 to <0.25 μg./kg.-10 minutes.

[2] = tested on: secretion from the pancreas induced by secretin and cholecystokinin; test: inhibition of pancreatic secretion in dogs with pancreatic and total gastric fistula; format: in vivo
Description: In three dogs having both pancreatic and total gastric fistula, secretion from the pancreas was induced by infusion of secretin at 2 units/kg-hr. and cholecystokinin at 0.45 unit/kg-hr., and secretion of gastric HCl by infusion of tetragastrin at 0.5 μg/kg-hr. After a steady response was established, each dog received D-Val^2, D-Trp^8 -somatostatin for one hour at 0.25 μg/kg-hr. The peak inhibitory effect expressed as percent change over control for total protein was -72%. This corresponds to the inhibitory effect obtained by administration of about 0.5 μg/kg-hr. of somatostatin.

growth hormone secretion = test: release of growth hormone in sodium pentobarbital-stimulated rats; format: in vivo, Spraque-Dawley rats; settings: subcutaneously, serum growth hormone 20 minutes after administration
Description: D-Val^2, D-Trp^8 -somatostatin also was tested for its activity with respect to the release of growth hormone. The procedure which was employed is carried out using normal male Spraque-Dawley rats weighing 100-120 grams (Laboratory Supply Company, Indianapolis, Indiana). The test is a modification of the method of P. Brazeau, W. Vale, and R. Guilleman, Endocrinology, 94, 184 (1974). In this assay, five groups of eight rats each were employed. Sodium pentobarbital was administered intraperitoneally to all of the rats to stimulate growth hormone secretion. One group served as the control and received only saline. Two of the groups received somatostatin, one at 2 μg./rat, subcutaneously, and the other at 50 μg./rat, subcutaneously. The other two groups received D-Val^2, D-Trp^8 -somatostatin, one at 2 μg./rat, subcutaneously, and the other at 50 μg./rat, subcutaneously. The serum concentration of growth hormone was measured 20 minutes after simultaneous administration of sodium pentobarbital and test compound. The degree of inhibition of serum growth hormone concentration then was determined with respect to the control group, and the relative activities of D-Val^2, D-Trp^8 -somatostatin and somatostatin itself were compared. […]

[3] = tested on: glucagon and insulin secretion; test: in vivo inhibition of glucagon and insulin secretion upon stimulation with L-alanine; design: species or system mongrel dogs; settings: intravenous infusion
Description: D-Val^2, D-Trp^8 -somatostatin was tested for its in vivo activity in inhibiting glucagon and insulin secretion upon stimulation with L-alanine. Normal mongrel dogs of either sex were fasted overnight. Control blood samples were obtained, and then an intravenous infusion of saline, somatostatin, or D-Val^2, D-Trp^8 -somatostatin was started. After 30 minutes, L-alanine additionally was administered intravenously for a period of 15 minutes. The infusion of saline, somatostatin, or D-Val^2 D-Trp^8 -somatostatin was continued for 15 minutes after completion of the L-alanine infusion. The infusion of L-alanine caused an abrupt increase in serum concentration of glucagon and insulin which returned to control concentration upon termination of the L-alanine infusion. From the above it was determined that the minimal effective concentration of D-Val^2, D-Trp^8 -somatostatin is about 194 nanograms/kg./min. whereas the minimal effective concentration of somatostatin is 100-200 nanograms/kg./min.

glucagon secretion = test: in vivo inhibition of glucagon secretion upon stimulation with insulin; design: species or system mongrel dogs; settings: infused at a rate of 0.109 μg/kg/min.
Description: D-Val^2, D-Trp^8 -somatostatin also was evaluated for in vivo activity in inhibiting glucagon secretion upon stimulation with insulin. Normal mongrel dogs of either sex were fasted overnight. After control blood samples had been obtained, an intravenous infusion of saline, somatostatin, or D-Val^2, D-Trp^8 -somatostatin was commenced. After 15 minutes, insulin, 0.3 units/kg., was injected intravenously. The infusion of saline, somatostatin, or the test compound was continued for two hours, and blood samples were obtained at various intervals throughout the test. The total dose of the somatostatin or test compound ranged from 120-260 μg./dog (0.07-0.13 μg/kg/min.). Administration of insulin produced a reduction in the blood glucose concentration of an increase in serum glucagon concentration.

[4] = intravenous infusion over ten minutes

## CC(C)[C@@H](NC(=O)[C@H](C)N)C(=O)N[C@H]1CSSC[C@@H](C(=O)O)NC(=O)[C@H](CO)NC(=O)[C@H]([C@@H](C)O)NC(=O)[C@H](Cc2ccccc2)NC(=O)[C@H]([C@@H](C)O)NC(=O)[C@H](CCCCN)NC(=O)[C@@H](Cc2c[nH]c3ccccc23)NC(=O)[C@H](Cc2ccccc2)NC(=O)[C@H](Cc2ccccc2)NC(=O)[C@H](CC(N)=O)NC(=O)[C@H](CCCCN)NC1=O [D-Val^2, D-Trp^8 -somatostatin] (H-A[dV]CKNFF[dW]KTFTSC-OH; disulfide 3-14)
[1]; effect of 0.25 μg/kg-hr. extrapolated against the dose-response curve of somatostatin
  dose of somatostatin of equivalent effect on gastric acid secretion: 0.324 μg/kg-hr.
[1]; relative potency expressed as percent activity
  activity relative to that of somatostatin (gastric acid secretion): 130%
[1]; six dogs, infused at 0.25 μg/kg-hr. for one hour, maximal inhibitory effect, ± standard error of mean
  inhibition of steady state acid secretion induced by the C-terminal tetrapeptide of gastrin: 61.9 ± 3.4%
Gut motility; based on minimum effective dose
  gut motility activity compared with somatostatin: approximately equivalent to that of somatostatin itself
Gut motility; [4]
  effect on intralumenal pressure in the pylorus: initially increased the intralumenal pressure in the pylorus and then decreased it
  effect on pressure in the duodenum and the antrum: remained depressed throughout the test
[2]; compared with 0.25 μg/kg-hr. of the analog
  dose of somatostatin giving the corresponding inhibitory effect on pancreatic secretion: about 0.5 μg/kg-hr.
[2]; three dogs, 0.25 μg/kg-hr. for one hour
  peak inhibitory effect expressed as percent change over control for total protein: -72%
Growth hormone secretion; 2 μg./rat
  inhibition of the increase in growth hormone secretion over control: 21%
Growth hormone secretion; 50 μg./rat
  inhibition of the increase in growth hormone secretion over control: 88%
[3]
  minimal effective concentration (inhibition of glucagon and insulin secretion): about 194 nanograms/kg./min.
Glucagon secretion
  effect on the rise in serum glucagon concentration produced by insulin hypoglycemia: partial inhibition
